Data taken from US20200190592A1, “PME-1 AS A BIOMARKER TO PREDICT AND DIAGNOSE AN INCREASED RISK OF ENDOMETRIAL CANCER AND GENE SILENCING OF PME-1 TO INHIBIT EPITHELIAL TO MESENCHYMAL TRANSITION” (Medical Diagnostic Laboratories, L.L.C., priority 2018, published 2020).

How the values were obtained:
Type in all cases: cell-based, human
PPME1 = experiment: qRT-PCR of PPME1 (PME-1) expression in RL95-2 cells; details: RL95-2, normalized to 18S, vs shSCR
Experimental: In this study, we transfected RL95-2 cells to express empty vector (Control), over-expressing PME-1 (+PME-1) or expressing shRNA against PME-1 (−PME-1) followed by serum starvation for 24 hours. Afterwards, either vehicle or TGF-β treatment was performed at the end of the 24 hours. TGF-β was used to induce cells to initiate the EMT program. Gene expression analysis was conducted using quantitative real-time PCR.
(§1) Using RL95-2 endometrial cancer cells, we overexpressed PME-1 (FIG. 21A) or depleted PME-1 with shRNA (FIG. 21B) and confirmed that PME-1 was appropriately expressed.
(§2) Total RNA was extracted with Qiagen RNAEasy kit from RL95-2 cells. cDNA was synthesized using 500 ng-1 μg of RNA and SuperScript VILO c-DNA mix (Life Technologies). Taqman probes and PCR-mix were purchased from Life Technologies. All samples were run in triplicates. Results are representative of three independent experiments in which genes of interest were normalized to the house-keeping gene, 18S or GAPDH, where fold-change was calculated using the ddCt method.

RL95-2 cells [1] = experiment: Foci forming assay in RL95-2 cells; details: RL95-2, PME-1 depleted, compared to control cells
Experimental: A foci forming assay was used in this study to monitor cell growth. Equal amounts of cells were plated and they were allowed to grow for a determined period of time (see Materials and Methods section for details). The foci that were formed were then stained with the crystal violet dye. Cells were washed […] with PBS prior to visualization. Numbers of foci were counted and results were averaged among different experiments.
To determine if the loss of active PME-1 accounted for the observed decrease in foci formation, we first treated RL95-2 cells with siRNA against the 3′-UTR of PPME1 to decrease endogenous levels of PME-1. […] The S156A PME-1 mutant is not capable of demethylating its target, PP2A.
(§3) 1,000 cells were plated in a six well tissue culture dish in selection media (to include 5 μg/ml puromycin) (InvivoGen). Cells were allowed to adhere and grow in a 5% CO2, 37° C. incubator for 10 to 14 days. Media was replaced every fourth day. Cells were stained with 1% crystal violet (Sigma Aldrich) for five minutes and rinsed with PBS. Colonies were counted and data is presented as the percentage of change compared to the control. All Experiments were repeated at least three times.

phospho-ERK = experiment: Western analysis of phospho-ERK in RL95-2 cells; details: compared to control cells; total ERK as reference
Experimental: When PME-1 was depleted with shRNA, there was a decrease in phospho-ERK compared to control cells.
(§4) 15 μg of protein was used for western analysis. PME-1 antibody (Santa Cruz) and COXIV (Cell Signaling Technologies) were used for detection of proteins and the blots were developed using chemiluminescence (Pierce ECL Western Blotting Substrate—Thermo Scientific) on the GE ImageQuant LAS 4000. For analysis of Akt, ERK, and β-catenin signaling in tissue culture, western analyses were completed as follows. RL95-2 cells stably infected with lentivirus expressing constructs were selected with puromycin (Invivogen). The cells were incubated with either 50 μM Akt inhibitor (LY 294002, Cell Signaling Technologies) or 40 μM ERK inhibitor (V0126, Cell Signaling Technologies) for 1-2 hours at 37° C. 1.5× Laemelli buffer (0.5 M Tris pH6.8, […], 10% sodium dodecyl sulfate, 100 mM EDTA) was used to prepare cell lysates. 20 μg of protein was used for western analysis. Primary antibodies used were: P-Akt (Ser473), P-Akt (Thr308), pan-Akt, P-ERK (Thr202/204), total ERK (Cell Signaling Technologies), PME-1 (Santa Cruz), phospho-β-catenin (Ser45, Cell Signaling Technologies), phospho-β-catenin (Ser33/37/Thr41, Cell Signaling Technologies), β-catenin (Abcam), DcR2 (Abcam), and GAPDH (Abcam). All experiments were repeated several times with similar results.

RL95-2 cells [2] = experiment: BrDU incorporation assay; details: compared to scrambled shRNA control set to 100%
Experimental: To confirm our foci formation data that altering PME-1 levels in endometrial cancer cells affect their rate of cell proliferation, we conducted a BrDU incorporation assay. BrDU is incorporated into newly synthesized DNA and can be detected with antibodies; thus, increased BrDU incorporation correlates with an increased level of proliferation.
The BrDU Incorporation assay was completed with RL95-2 cell lines in media supplemented with 2.5 μg/ml puromycin. Cells were plated at 0.5*10^4 cells per well into a 96 well dish with 0% FBS and allowed to settle for 24 hours. The assay was completed as per kit instructions (Roche, Cell Proliferation ELISA, BrdU colorimetric cat. #11647229001). Briefly, 10 uM BrdU was added to the cells, 24 hours later cells were fixed and denatured with FixDenat from the kit and allowed to incubate with anti-BrdU antibody for up to two hours. Following the incubation and addition of the kit substrate, absorbances were read using FluoStar Galaxy.

SFRP1 = experiment: qRT-PCR of SFRP1 expression in RL95-2 cells; details: RL95-2, normalized to 18S
Experimental: as §1, §2

ECC-1 cells = experiment: Foci formation analysis in ECC-1 cells; details: 10 days
Experimental: We performed a foci formation analysis by transfecting (i) empty FLAG vector, (ii) FLAG-PPP2CA, (iii) FLAG-PPP4C, or (iv) FLAG-PPP6C into ECC-1 cells that stably expressed either (i) shSCR (non-targeting shRNA, black bars) or (ii) shPPME1 (depletes PME-1 levels, white bars) (FIG. 24).
as §3

phospho-Akt = experiment: Western analysis of Akt phosphorylation in RL95-2 cells; details: PME-1 knocked down
Experimental: We observed a similar trend for the Akt signaling pathway. There was an increase in phosphorylation of Akt on threonine 308 (T308) when PME-1 was over-expressed compared to control. There was a decrease in phosphorylation of Akt when PME-1 was knocked down (FIG. 18B). PME-1 over-expression specifically increases the phosphorylation of Akt on T308, but not serine 473 (S473). Importantly, when cells were incubated with upstream inhibitors of Akt phosphorylation (LY294002), there was a decrease in the phospho-forms (FIGS. 18A and 18B), as expected.
as §4, with “20 μg of protein was used for western analysis. Primary antibodies used were: P-Akt (Ser473), P-Akt (Thr308), pan-Akt, P-ERK (Thr202/204), total ERK (Cell Signaling Technologies), PME-1 (Santa Cruz), phospho-β-catenin (Ser45, Cell Signaling Technologies), phospho-β-catenin (Ser33/37/Thr41, Cell Signaling Technologies), β-catenin (Abcam), DcR2 (Abcam), and GAPDH (Abcam). All experiments were repeated several times with similar results.” left out

shPPME1 no. 2: shRNA targeting PPME1, SEQ ID NO: 2: GCAGCGATTATTAGTAGAGTT, bp 289-309; used for all subsequent experiments (guide GCAGCGATTATTAGTAGAGTT; listed as Homo sapiens)
PME-1 knocked down (PPME1): > 50% | decrease in foci (RL95-2 cells [1]): 75% | phospho-ERK (phospho-ERK): decrease | decrease in BrDU incorporation (RL95-2 cells [2]): 40% | SFRP1 expression (SFRP1): significantly increased | SFRP1 expression (SFRP1; listed as shRNA (SEQ ID NO: 2)): significant increase | foci formation (ECC-1 cells; ECC-1, empty FLAG vector, vs shSCR control): significant decrease | foci formation (ECC-1 cells; ECC-1 transfected with PP2A, PP4 or PP6, vs shSCR): significant decrease | phosphorylation of Akt (phospho-Akt): decrease
